Measured values from patent US9499484B2, “Indole, indoline derivatives, compositions comprising them and uses thereof” (priority 2012, dated 2016).
Counter-ions that a name gives are not always drawn. Like-named read-outs stand apart in the source and are kept apart here.

Key:
[1] = Radical scavenging, glucose oxidase/luminol luminescence; format: biochemical; details: concentration reducing luminescence/radical by 50%; mean ± SD, three independent experiments
Protocol: A. Measurement of Radical Scavenging
A mixture comprising glucose oxidase (GO), luminol, sodium selenite [IV] ([…]) and cobalt [II] (Co^+2) all in Hank's Balance Salt Solution (HBSS) was used (Ginsburg et al, 2004). The production of H2O2 produces a burst of luminescence within 30-60 sec, which lasts for 7-10 min. The luminescence involves oxidation of SEL+5 to it SEL+6 and also the generation of oxidants, which are catalyzed by Co^+2. This method mimics infection and inflammation conditions in which there is an accumulation of several oxidant species. This method provides a source of several radicals. Reduction in luminescence by the compounds is due to their ability to sequester radicals and was measured after addition of several concentrations of each compound. The concentration of each compound that reduced the luminescence by 50% was calculated.

Radical scavenging, Sin1 = format: biochemical; details: mean ± SD, three independent experiments
BuChE = molecular target: T1, BuChE (UniProt P81908); format: biochemical, human or equine serum; details: read-out: IC50 BuChE 120 min; Table 3; 120 min incubation
T1 construct: 120 min incubation; BuChE IC50
Protocol: (§1) B. Measurement of Acetylcholinesterase (AChE) and Butylcholinesterase (BuChE) Inhibition In Vitro
(§2) The enzyme was incubated at 37° C. with 6-10 concentrations of the compounds tested and samples were collected at 15, 30, 60 and 120 min Aliquots were transferred to an Elisa multiscan microplate reader (Labsystems) at 15-60 sec time intervals for the determination of residual AChE activity, with Ascent PC software. […] The % inhibition of AChE by each concentration was calculated by comparison with the activity of the enzyme in the absence of drug. […] BuChE-inhibitory activity was determined as described above using BuChE (Sigma Israel) with butylthiocholine iodide (BuTh) 0.075M as a substrate.

[2] = system: TNF-α, BV2 mouse microglial cells; test: TNF-α reduction in LPS-stimulated BV2 microglia; format: cell-based; details: for Reduction in TNF-α levels, BV2 Microglia range: concentration range, None = no reduction up till 100 nM
Protocol: (§3) The BV2 mouse microglial cells were created by infecting primary mouse microglia with v-raf/v-myc oncogen-carrying retrovirus and donated by Dr. Sigal Fleisher—Berkovich (Ben-Gurion University of the Negev). The cells were cultured in RPMI 1640 containing 0.4 mM L-Glutamine, 10% FCS, 100 units/ml penicillin, 100 μg/ml streptomycin and maintained in a humidified incubator at 37° C. with 5% CO2. For measurement of the effect of compounds on the release of NO the cells were seeded in a density of 80,000 cells/ml and confluence of about 60%, and incubated with test compounds (in the absence of FCS) for […] All the medium was removed and fresh medium containing FCS and LPS (10 μg/ml) added and the cells maintained at 37° C. for 24 h. The release of NO into the medium was determined by measurement of nitrite levels using Griess reagent reaction. For measurement of protein levels of cytokines cells were seeded in a density of 80,000 and incubated with test compounds (in the absence of FCS) and then with LPS as described above. The medium was centrifuged and supernatants collected after 6 h for TNF-α (Biolegend) and after 20 h for IL-6 (Biolegend).

TNF-α, RAW 264.7 cells = test: TNF-α reduction in LPS-stimulated RAW 264.7 macrophages; format: cell-based, mouse
AChE = molecular target: T2, AChE (UniProt P23795); format: biochemical, human or bovine erythrocytes; details: Table 3; 120 min incubation; read-out: IC50 AChE 120 min
T2 sequence (P23795 1-613): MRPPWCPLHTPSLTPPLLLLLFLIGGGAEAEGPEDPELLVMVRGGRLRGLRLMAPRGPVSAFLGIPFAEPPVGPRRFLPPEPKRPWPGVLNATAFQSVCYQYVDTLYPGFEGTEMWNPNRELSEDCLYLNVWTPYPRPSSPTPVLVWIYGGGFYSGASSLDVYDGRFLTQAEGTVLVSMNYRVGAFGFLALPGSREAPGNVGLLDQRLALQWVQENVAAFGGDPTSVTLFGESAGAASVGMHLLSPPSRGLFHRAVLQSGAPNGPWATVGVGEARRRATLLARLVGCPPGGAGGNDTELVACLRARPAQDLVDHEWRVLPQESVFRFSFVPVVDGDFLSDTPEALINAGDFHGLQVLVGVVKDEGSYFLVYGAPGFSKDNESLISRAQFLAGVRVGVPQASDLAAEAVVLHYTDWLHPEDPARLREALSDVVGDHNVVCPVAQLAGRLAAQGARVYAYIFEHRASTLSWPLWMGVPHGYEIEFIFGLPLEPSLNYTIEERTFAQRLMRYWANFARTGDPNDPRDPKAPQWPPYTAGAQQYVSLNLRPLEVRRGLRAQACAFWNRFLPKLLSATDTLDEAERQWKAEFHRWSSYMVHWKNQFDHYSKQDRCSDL
Protocol: as §1, §2

[3] = system: rat cardiac myoblasts (H9c2); test: Protection against H2O2-induced cell death in cardiomyocytes, Alamar Blue; format: cell-based; details: concentration(s) giving >50% protection
Protocol: C. Measurement of Protective Activity Against Oxidative Stress in Cell Cultures
Compounds of the invention were tested for their potential to protect against cell death induced by oxidative stress in a cell line derived from rat cardiac myoblasts (H9c2) (Hescheler et al., 1991). Cells were cultured in Dulbecco's Modified Eagle's Medium (DMEM), 4500 mg/L D-glucose with 10% foetal calf serum (FCS), 10000 U/mL penicillin, […] streptomycin and 25 μg/mL Amphotericin B at 37° C. with 95% air and 5% CO2. One day prior to the measurement, cells were seeded in 96 well-plates at a density of 5,000 cells/well and incubated with 100 μM H2O2 for 1 h. […] Cells were incubated with different compounds of the invention in several concentrations ranging from 0.0001-100 μM, for 1, 4 or 7 h prior to addition of H2O2. Cell viability was measured by means of Alamar Blue (AbD Serotec, BUF012A). In order to compare the protective effect of the compounds this degree of cell death was normalized to 100% in each experiment. The effect of the drugs is expressed as percent reduction of this value.

[4] = system: ChE (AChE, BuChE) in plasma, muscle, spleen, brain; details: after ip and or oral administration in mice
Protocol: E. Acetylcholinesterase (AChE) and Butylcholinesterase (BuChE) Inhibition Ex Vivo
Compounds of the invention or saline were administrated by intraperitoneal (ip) injection or gavage to groups of 6-7 male ICR or Balb C mice (5-6 weeks of age). The mice were sacrificed 15, 30, 60 or 120 min after drug administration and the brain (minus cerebellum), spleen, and muscle were rapidly removed, weighed and put on ice. Blood was also collected in heparinised tubes, centrifuged at 14000 rpm at room temperature for 4 mM to provide plasma. Phosphate buffer pH 7 was added to each tissue to produce concentrations of 1 mg/mL for brain and spleen and 8 mg/mL for muscle. The tissues were homogenised in cold phosphate buffer pH 7 containing 0.1% Triton and centrifuged at 14000 rpm. Aliquots of plasma and the supernatant of all tissues were incubated with AcTh or BuTh and DTNB in phosphate buffer pH 7 and the rate of development of the yellow colour was measured as described above. Enzyme activity was measured for each time and drug concentration and percent inhibition of the AChE or BuChE activity was calculated by comparison with that of control mice injected with saline. Results are represented as p moles acetylthiocholine or butythiocholine hydrolysed/min/gm tissue.

[5] = system: NO, BV2 mouse microglial cells; test: NO reduction in LPS-stimulated BV2 microglia; format: cell-based; details: concentration range; None = no reduction up till 100 nM
Protocol: as §3

NO, RAW 264.7 cells = test: NO reduction in LPS-stimulated RAW 264.7 macrophages; format: cell-based, mouse
[6] = Mus musculus, RAW264.7, 6 h, read-out: Reduction in TNF-α levels, RAW Macrophages % peak reduction
[7] = cells in μM, no effect ≦ 100 μM given as >100
[8] = concentration range; None = no reduction up till 100 nM

CCN(C)C(=O)Oc1ccc2c(c1)N(CCC(=O)OC)CC2 [compound 1247, Methyl 3-(6-((Ethyl(methyl)carbamoyl)oxy)indolin-1-yl)propanoate hydrochloride]
IC50 [1]: 0.22 ± 0.04 µM | IC50 (Radical scavenging, Sin1): 2.18 ± 0.17 µM | IC50 (BuChE): 6.8 µM

CCN(C)C(=O)Oc1cccc2c1CCN2CCC(=O)OC.Cl [AN-1243, Methyl 3-(4-((Ethyl(methyl)carbamoyl)oxy)indolin-1-yl)propanoate Hydrochloride]
IC50 [1]: 0.3 ± 0.01 µM | IC50 (Radical scavenging, Sin1): 8.49 ± 0.003 µM | IC50 (BuChE): 0.7 µM | Reduction in TNF-α levels, BV2 Microglia % peak reduction [2]: 18.6 ± 1.0% | Reduction in TNF-α levels, BV2 Microglia range [2]: 100 nM | Emax (TNF-α, RAW 264.7 cells; [6]): 20.3 ± 5.4%

CCN(C)C(=O)Oc1ccc2c(c1)NCC2CCC(=O)OC (stereo not shown) [AN-680, 3-(2-(Methoxycarbonyl)ethyl)-1-indoline-6-yl ethylmethylcarbamate hydrochloride]
IC50 [1]: 1.45 ± 0.05 µM | IC50 (Radical scavenging, Sin1): 2.36 ± 0.05 µM | IC50 (AChE): 55.2 µM | IC50 (BuChE): 3.9 µM | Reduction in TNF-α levels, BV2 Microglia range [2]: None | Emax (TNF-α, RAW 264.7 cells; [6]): 34.5 ± 1.6%

COC(=O)CCC1CN(C)c2cc(OC(=O)N(C)c3ccc(OC)cc3)ccc21 (stereo not shown) [AN-687, Methyl 3-(6-((4-methoxyphenyl)(methyl)carbamoyloxy)-1-methylindolin-3-yl)propanoate hydrochloride]
IC50 [1]: 2.24 ± 0.03 µM | IC50 (BuChE): 372 µM | Cardiomyocte cell line Conc′ >50% protection H2O2 Alamar blue [3, 7]: 100 to 10000 nM

CCN(C)C(=O)Oc1ccc2c(c1)NCC2CCC(=O)OC.O=C(O)CC(O)(CC(=O)O)C(=O)O (stereo not shown) [AN-878, 6-(Ethyl(methyl)carbamoyloxy)-3-(3-methoxy-3-oxopropyl)indolinium citrate]
ChE inhibition in plasma, muscle, and spleen [4]: inhibited ChE

COC(=O)CCC1CNc2cc(O)ccc21 (stereo not shown) [AN-682, Methyl 3-(6-hydroxyindolin-3-yl)propanoate hydrochloride]
IC50 [1]: 1.34 ± 0.01 µM | IC50 (Radical scavenging, Sin1): 2.33 ± 0.08 µM | Reduction in TNF-α levels, BV2 Microglia % peak reduction [2]: 17.6 ± 1.3% | Reduction in TNF-α levels, BV2 Microglia range [2]: 10^−2-100 nM | Emax (TNF-α, RAW 264.7 cells; Mus musculus, RAW264.7, 6 h; read-out: Reduction in TNF-α levels, RAW Macrophages % peak reduction): 55 ± 1.3% | Reduction in TNF-α levels, RAW Macrophages range (TNF-α, RAW 264.7 cells; [8]): 10^−1-100 nM

COC(=O)CCC1CNc2cc(OC(=O)N(C)c3ccc(OC)cc3)ccc21 (stereo not shown) [AN-685, Methyl 3-(6-((4-methoxyphenyl)(methyl)carbamoyloxy)indolin-3-yl)propanoate hydrochloride]
IC50 [1]: 3.41 ± 0.02 µM | IC50 (BuChE): 54 µM | Cardiomyocte cell line Conc′ >50% protection H2O2 Alamar blue ([3]; cells in nM): 0.001 to 0.1 nM

CCCCN(C)C(=O)Oc1ccc2c(c1)N(C)CC2CCC(=O)OC (stereo not shown) [AN-691, Methyl 3-(6-(butyl(methyl)carbamoyloxy)-1-methylindolin-3-yl)propanoate hydrochloride]
IC50 [1]: 6.27 ± 0.05 µM | IC50 (BuChE): 66.8 µM | Cardiomyocte cell line Conc′ >50% protection H2O2 Alamar blue [3, 7]: 100000 nM

CCN(C)C(=O)Oc1ccc2c(c1)NCC2CCC(=O)O (stereo not shown) [AN-681, 3-(6-(Ethyl(methyl)carbamoyloxy)indolin-3-yl) propanoic acid hydrochloride]
IC50 [1]: 1.14 ± 0.09 µM | IC50 (BuChE): 10 µM | Reduction in NO levels by at >20%, BV2 Microglia range [5]: None | Reduction in TNF-α levels, BV2 Microglia range [2]: None | Emax (NO, RAW 264.7 cells; Mus musculus, RAW264.7, 24 h, read-out: Reduction in NO levels, RAW Macrophages % peak reduction): 50.1 ± 4.1% | Reduction in NO levels by at >20%, RAW Macrophages range (NO, RAW 264.7 cells; concentration range, None = no reduction up till 100 nM): 10^−1-100 nM | Emax (TNF-α, RAW 264.7 cells; [6]): 29.2 ± 5.6% | Reduction in TNF-α levels, RAW Macrophages range (TNF-α, RAW 264.7 cells; [8]): 0.1 to 100 nM

COC(=O)CCC1CNc2cccc(OC(=O)N(C)c3ccc(OC)cc3)c21 (stereo not shown) [AN-819, 3-(3-methoxy-3-oxopropyl)-4-(((4-methoxyphenyl)(methyl)carbamoyl)oxy) indolin-1-ium hydrochloride]
IC50 [1]: 19 ± 0.6 µM | IC50 (Radical scavenging, Sin1): 3.18 ± 0.2 µM | IC50 (BuChE): 4.6 µM | Cardiomyocte cell line Conc′ >50% protection H2O2 Alamar blue ([3]; cells in nM): 0.001 to 1 nM | ChE inhibition in plasma, muscle, and spleen [4]: inhibited ChE

CCN(C)C(=O)Oc1cccc2[nH]cc(CCN)c12.Cl [AN-886, 2-(4-((ethyl(methyl)carbamoyl)oxy)-1H-indol-3-yl)ethanaminium hydrochloride]
Cardiomyocte cell line Conc′ >50% protection H2O2 Alamar blue [3, 7]: no effect ≦ 100 μM

COC(=O)CCC1CN(C)c2cccc(O)c21.Cl (stereo not shown) [AN-833, Methyl 3-(4-hydroxy-1-methylindolin-3-yl)propanoate hydrochloride]
IC50 [1]: 0.45 ± 0.03 µM | Cardiomyocte cell line Conc′ >50% protection H2O2 Alamar blue [3, 7]: no effec ≦ 100 μM

O=C(O)CCC1CNc2cccc(O)c21 (stereo not shown) [AN-834, 3-(4-hydroxyindolin-3-yl)propanoic acid hydrochloride]
IC50 [1]: 1.44 ± 0.04 µM | Cardiomyocte cell line Conc′ >50% protection H2O2 Alamar blue ([3]; cells in nM): 0.1 to 10 nM

CCN(C)C(=O)Oc1cccc2c1C(CCC(=O)OC)CN2 (stereo not shown) [AN-827, 3-(2-(Methoxycarbonyl)ethyl)indolin-4-yl ethylmethylcarbamate hydrochloride]
IC50 [1]: 1.46 ± 0.05 µM | IC50 (Radical scavenging, Sin1): 4.55 ± 0.48 µM | IC50 (BuChE): 0.3 µM | Reduction in TNF-α levels, BV2 Microglia % peak reduction [2]: 38.5 ± 3.2% | Reduction in TNF-α levels, BV2 Microglia range [2]: 10^−1-100 nM | Emax (TNF-α, RAW 264.7 cells; [6]): 30 ± 3% | Reduction in TNF-α levels, RAW Macrophages range (TNF-α, RAW 264.7 cells; [8]): 10^−1-100 nM | ChE inhibition in plasma, muscle, and spleen [4]: inhibited ChE

O=C(O)CCC1CNc2cc(O)ccc21 (stereo not shown) [AN-848, 3-(6-Hydroxyindolin-3-yl) propanoic acid hydrochloride]
IC50 [1]: 2.34 ± 0.02 µM | IC50 (Radical scavenging, Sin1): 3.07 ± 0.66 µM

CCCCN(C)C(=O)Oc1ccc2c(c1)NCC2CCC(=O)OC (stereo not shown) [AN-677, 3-(2-(Methoxycarbonyl)ethyl)-1-indoline-6-yl butylmethylcarbamate hydrochloride]
IC50 [1]: 24.1 ± 0.18 µM | IC50 (AChE): 62.3 µM | IC50 (BuChE): 404 µM | Cardiomyocte cell line Conc′ >50% protection H2O2 Alamar blue ([3]; cells in nM): 1 to 10 nM

CCOC(=O)CCC1CNc2cccc(OC(=O)N(C)CC)c21.O=C(O)CC(O)(CC(=O)O)C(=O)O (stereo not shown) [AN-871]
Cardiomyocte cell line Conc′ >50% protection H2O2 Alamar blue [3, 7]: no effect ≦ 100 μM
